# Patent US20250057772A1, “ORAL DOSAGE FORM WITH IONICALLY CHARGEABLE HYDROGEL FOR DELIVERY OF ACTIVE AGENT” (Entrega Inc., priority 2022, published 2025)
# How the values were obtained:
# [1] = published values; cited from earlier work
# [2] = Evans Blue exclusion procedure; assay type: physicochemical; conditions: 0.125 mg/mL Evans Blue in FASSIF buffer pH 7, hydrogel #12.035 for 40, 60, 80, 90% fluid uptake; p<0.001 vs no hydrogel
# From the text: Commercially obtained Evan's blue dye was used as a surrogate marker for an anionic drug in hydrogel testing. It has a molecular weight of 961.8 g/mole and has four negative charges at pH 7 due to four sulfonate groups in the structure. Its visible light absorbance at 605 nm provides an easy way to monitor the concentration of the dye when exposed to the hydrogel in solution.
# FASSIF buffer was created by adding 41.65 g of FASSIF buffer concentrate (Biorelevant Media, code FaSSIF) to 961.1 g DI water and stirred until completely mixed. Evans Blue solution was created by adding Evans Blue to approximately half of the FASSIF solution such that the final concentration of the media is 0.125 mg/mL Evans Blue.
# 5 mL of Evans Blue solution was added to a 15 mL centrifuge tube (EB Tube). 5 mL of FASSIF buffer (without Evans Blue) was added to another 15 mL tube (Background Tube). 200 mg of sub-63 um hydrogel #12.035 was added to both tubes. Vortexed tubes until fully mixed and placed both tubes on rocker plate for 15 minutes. After 15 minutes, both tubes were centrifuged at 3000 g for 1 minute. (N=3) 20 μL samples were extracted from the supernatant of both tubes and diluted into 180 μL of DI water in 96-well UV-clear plate. […] The plate was read for absorbance at 605 nm.
# The absorbance reading samples from each group were averaged. […]
# [3] = Exclusion or binding of ionic agents by Hydrogel #3.02, exterior fluid concentration by UV absorbance; assay type: physicochemical
# Description: Sodium caprate (sodium decanoate) is a known intestinal permeation enhancer with a negative charge (negative charge on the caprate). Sodium caprate (280 mg) was dissolved in 5 mL of modified pH 7 FASSIF buffer.
# The intestinal permeation enhancer, sodium caprate (280 mg) was added.
# Octreotide (as octreotide acetate) is an FDA approved therapeutic peptide with a molecular weight of 1019 g/mole and a net positive charge at pH below 8 (isoelectric point of octreotide=8.5). Octreotide (5 mg) was dissolved in 5 mL of modified FASSIF buffer at pH 7 (resulting in a starting concentration of 1 mg/mL).
# Lanreotide is an FDA approved therapeutic peptide with a molecular weight of 1096 g/mole and a net positive charge at pH below 8. Lanreotide (5 mg) was dissolved in 5 mL of modified FASSIF buffer at pH 7.
# Lanreotide is an FDA approved therapeutic peptide with a molecular weight of 1096 g/mole and a net positive charge at pH below 8. Lanreotide (5 mg) was dissolved in 5 mL of deionized water.
smiles,measurement,setting,value
COS(=O)(=O)O [methanesulfate],pKa,[1],−3.4
CCCN [propylamine],pKa,[1],~10.7
Cc1cc(-c2ccc(/N=N/c3ccc4c(S(=O)(=O)O)cc(S(=O)(=O)O)c(N)c4c3O)c(C)c2)ccc1/N=N/c1ccc2c(S(=O)(=O)O)cc(S(=O)(=O)O)c(N)c2c1O [Evans Blue],relative concentration of the dye as hydrogel is added,[2],increasing concentration
CCS(=O)(=O)O [ethanesulfonic acid],pKa,[1],−1.68
"CCCCCCCCCC(=O)[O-].[Na+] [Sodium caprate, sodium decanoate]",concentration of caprate in the exterior fluid relative to initial concentration,"[3]; 280 mg in 5 mL modified pH 7 FASSIF, Hydrogel #3.02 300 mg",~1.4 times the initial concentration
CC(C)[C@@H]1NC(=O)[C@H](CCCCN)NC(=O)[C@@H](Cc2c[nH]c3ccccc23)NC(=O)[C@H](Cc2ccc(O)cc2)NC(=O)[C@@H](NC(=O)[C@H](N)Cc2ccc3ccccc3c2)CSSC[C@@H](C(=O)N[C@H](C(N)=O)[C@@H](C)O)NC1=O [Lanreotide],concentration in the exterior fluid,"[3]; 5 mg in 5 mL deionized water, Hydrogel #3.02 300 mg, after 25 minutes",less than 0.05 mg/mL
same,concentration in the exterior fluid,"[3]; 5 mg in 5 mL modified FASSIF pH 7, Hydrogel #3.02 300 mg, after 25 minutes",~300 µg/mL
C[C@@H](O)[C@@H]1NC(=O)[C@H](CCCCN)NC(=O)[C@@H](Cc2c[nH]c3ccccc23)NC(=O)[C@H](Cc2ccccc2)NC(=O)[C@@H](NC(=O)[C@H](N)Cc2ccccc2)CSSC[C@@H](C(=O)N[C@H](CO)[C@@H](C)O)NC1=O [Octreotide],concentration in the exterior fluid,"[3]; 5 mg in 5 mL modified FASSIF pH 7 (start 1 mg/mL), Hydrogel #3.02 300 mg, after 10 minutes",less than 0.8 mg/mL
